Test results from patent US8518492B2, “Composition, method for manufacturing thin film, and method for manufacturing light-emitting element” (Semiconductor Energy Laboratory Co., Ltd., priority 2008, dated 2013).
Like-named read-outs stand apart in the source and are kept apart here.

Tests used:
[1] = Film quality test of spin-coated thin films; format: physicochemical; parameters: key to Film Quality Test, Solvent Toluene / Film Quality Test, Solvent Ethyl acetate / Film Quality Test, Solvent Anisole / Film Quality Test, Solvent dioxane: ◯: a circle is marked in the case of a transparent film where crystallization or white turbidity is not seen; X: a cross is marked in the case of a film where crystallization or white turbidity is seen; settings: for Film Quality Test, Solvent Anisole: 10 g/L in anisole; for Film Quality Test, Solvent Anisole / Film Quality Test, Solvent dioxane / Film Quality Test, Solvent Ethyl acetate / Film Quality Test, Solvent Toluene: spin coated on glass substrate at 1000 rpm (60 seconds); for Film Quality Test, Solvent dioxane: 10 g/L in dioxane; for Film Quality Test, Solvent Ethyl acetate: 10 g/L in ethyl acetate; for Film Quality Test, Solvent Toluene: 10 g/L in toluene
Description: A composition of each of the samples was adjusted at a concentration of 10 g/L which is the same as that of the solubility test and was deposited over a glass substrate with a size of 5 inches at 1000 rpm (60 seconds) with a spin coater.

[2] = Solubility test of anthracene derivatives in solvents; format: physicochemical; settings: for solubility at 10 min: organic solvent or mixture, thermodynamic from solid, ultrasonic waves 10 minutes; for solubility in a solvent (summary in words): solubility test at 10 g/L, six solvents
Description: As comparative examples, compositions were produced by dissolving samples 1-1 to 1-4 in solvents. As manufacturing examples 1, compositions were produced by dissolving samples 1-5 to 1-14 in solvents. The solubility test was performed on the solvents of the anthracene derivatives of the samples […]. The following six solvents were used: diethyl ether, toluene, ethyl acetate, anisole, acetone, and 1,4-dioxane.
0.01 g of each of the anthracene derivatives of the samples 1-1 to 1-14 was measured and put in a sample bottle, 1 mL of a solvent was added in the sample bottle (the solution concentration was 10 g/L), and ultrasonic waves were applied thereto for 10 minutes.

[3] = 0.01 g in 1 mL 1,4-dioxane (10 g/L), read-out: Solubility Test, Solvent dioxane
[4] = 0.01 g in 1 mL acetone (10 g/L), read-out: Solubility Test, Solvent acetone
[5] = 0.01 g in 1 mL anisole (10 g/L), read-out: Solubility Test, Solvent Anisole
[6] = 0.01 g in 1 mL ethyl acetate (10 g/L), read-out: Solubility Test, Solvent Ethyl acetate
[7] = 0.01 g in 1 mL toluene (10 g/L), read-out: Solubility Test, Solvent Toluene
[8] = 0.01 g in 1 mL diethyl ether (10 g/L), read-out: Solubility Test, Solvent Diethyl ether

Film Quality Test, Solvent Anisole [1] | Film Quality Test, Solvent dioxane [1] | Film Quality Test, Solvent Ethyl acetate [1] | Film Quality Test, Solvent Toluene [1] | solubility at 10 min [2, 3] [µg/mL] | solubility at 10 min [2, 4] [µg/mL] | solubility at 10 min [2, 5] [µg/mL] | solubility at 10 min [2, 6] [µg/mL] | solubility at 10 min [2, 7] [µg/mL] | solubility at 10 min [2, 8] [µg/mL] | Compound | solubility in a solvent (summary in words) [2] | film quality (summary in words) ([1]; film quality test, spin coated from 10 g/L composition)
◯ | X | X | ◯ |  |  |  |  |  |  | c1ccc(-c2c3ccccc3c(-c3ccc(-n4c5ccccc5c5ccccc54)cc3)c3ccccc23)cc1 [Sample 1-5, 9-[4-(N-carbazolyl)]phenyl-10-phenylanthracene] |  | 
◯ | X | X | ◯ | > 10000 | < 10000 | > 10000 | < 10000 | > 10000 |  | c1ccc(-c2c3ccccc3c(-c3ccccc3)c3cc(-c4ccc(-n5c6ccccc6c6ccccc65)cc4)ccc23)cc1 [Sample 1-11, 9-[4-(9,10-diphenyl-2-anthryl)phenyl]-9H-carbazole] |  | 
◯ | X | ◯ | ◯ | > 10000 | > 10000 | > 10000 | > 10000 | > 10000 |  | c1ccc(-c2c3ccccc3c(-c3ccccc3)c3cc(-c4ccc5c(c4)c4ccccc4n5-c4ccccc4)ccc23)cc1 [Sample 1-13, 3-(9,10-diphenyl-2-anthryl)-9-phenyl-9H-carbazole] |  | 
 |  |  |  |  |  |  |  |  |  | CC(C)(C)c1ccc2c(-c3ccc(-c4ccc5c(c4)c4ccccc4n5-c4ccccc4)cc3)c3ccccc3c(-c3ccc(-c4ccc5c(c4)c4ccccc4n5-c4ccccc4)cc3)c2c1 [Sample 1-4, 3,3′-(2-tert-buthylanthracene-9,10′-diyldi-4,1-phenylene)bis(9-phenyl-9H-carbazole), reference compound] | low solubility | 
 |  |  |  | < 10000 | < 10000 | < 10000 | < 10000 | < 10000 | < 10000 | c1ccc2c(-c3ccc(-n4c5ccccc5c5ccccc54)cc3)c3ccccc3c(-c3ccc(-n4c5ccccc5c5ccccc54)cc3)c2c1 [Sample 1-2, 9,10-bis(4-(N-carbazolyl)phenyl)anthracene, reference compound] | low solubility | 
◯ | ◯ | X | ◯ | > 10000 | < 10000 | > 10000 | < 10000 | > 10000 | < 10000 | c1ccc(-c2c3ccccc3c(-c3cccc(-n4c5ccccc5c5ccccc54)c3)c3ccccc23)cc1 [Sample 1-7, 9-[3-(10-phenyl-9-anthryl)phenyl]-9H-carbazole] |  | 
◯ | X | X | ◯ |  |  |  |  |  |  | CC(C)(C)c1ccc(-c2c3ccccc3c(-c3ccc(-n4c5ccccc5c5ccccc54)cc3)c3ccccc23)cc1 [Sample 1-8, 9-(4-tert-butylphenyl)-10-[4-(carbazol-9-yl)]phenylanthracene] |  | 
◯ | X | X | ◯ | > 10000 | < 10000 | > 10000 | < 10000 | > 10000 | < 10000 | c1ccc(-c2c3ccccc3c(-c3ccc(-c4ccc5c(c4)c4ccccc4n5-c4ccccc4)cc3)c3ccccc23)cc1 [Sample 1-6, 9-phenyl-3-[4-(10-phenyl-9-anthryl)phenyl]-9H-carbazol] |  | 
◯ | X | ◯ | ◯ | > 10000 | < 10000 | > 10000 | > 10000 | > 10000 | > 10000 | c1ccc(-c2c3ccccc3c(-c3ccccc3)c3cc(-n4c5ccccc5c5ccccc54)ccc23)cc1 [Sample 1-12, 9-(9,10-diphenyl-2-anthryl)-9H-carbazole] |  | 
◯ | X | X | ◯ | > 10000 | < 10000 | > 10000 | < 10000 | > 10000 | < 10000 | c1ccc2cc(-c3c4ccccc4c(-c4ccc(-n5c6ccccc6c6ccccc65)cc4)c4ccccc34)ccc2c1 [Sample 1-9, 9-[4-(carbazol-9-yl)phenyl]-10-(2-naphthyl)anthracene] |  | 
 |  |  |  | < 10000 | < 10000 | < 10000 | < 10000 | < 10000 | < 10000 | c1ccc(-c2c3ccccc3c(-c3ccc(-n4c5ccccc5c5cc(-c6ccc7c(c6)c6ccccc6n7-c6ccccc6)ccc54)cc3)c3ccccc23)cc1 [Sample 1-3, 9-phenyl-9′-[4-(10-phenyl-9-anthryl)phenyl]-3,3′-bi(9H-carbazole), reference compound] | low solubility | 

Compound | Film Quality Test, Solvent Anisole [1] | Film Quality Test, Solvent dioxane [1] | Film Quality Test, Solvent Ethyl acetate [1] | Film Quality Test, Solvent Toluene [1] | solubility at 10 min [2, 3] [µg/mL] | solubility at 10 min [2, 4] [µg/mL] | solubility at 10 min [2, 5] [µg/mL] | solubility at 10 min [2, 6] [µg/mL] | solubility at 10 min [2, 7] [µg/mL] | solubility at 10 min [2, 8] [µg/mL] | solubility in a solvent (summary in words) [2] | film quality (summary in words) ([1]; film quality test, spin coated from 10 g/L composition)
c1ccc(-c2ccccc2-c2c3ccccc3c(-c3ccccc3-c3ccccc3)c3cc(-n4c5ccccc5c5ccccc54)ccc23)cc1 [Sample 1-14, 9-[9,10-bis(2-biphenyl)-2-anthryl]-9H-carbazole] | ◯ | X | ◯ | ◯ |  |  |  |  |  |  |  | 
c1ccc(-c2ccc3c(c2)c2cc(-c4ccccc4)ccc2n3-c2ccc(-c3c4ccccc4c(-c4ccccc4)c4ccccc34)cc2)cc1 [Sample 1-10, 3,6-diphenyl-9-[4-(10-phenyl-9-antryl)phenyl]-9H-carbazole] | ◯ | X | X | ◯ |  |  |  |  |  |  |  | 
c1ccc(-c2c3ccccc3c(-c3ccccc3)c3ccccc23)cc1 [Sample 1-1, 9,10-diphenylanthracene, reference compound] | X | X | X | X | < 10000 | < 10000 | > 10000 | < 10000 | > 10000 | < 10000 | high solubility | crystallized film with a bad quality
